Laboratory results from paper PMC11589570, “Critical assessment of LC3/GABARAP ligands used for degrader development and ligandability of LC3/GABARAP binding pockets” (Nature Communications, 2024).
“And” between values parts separate entries of the source, which are not always exact repeats. Equal values may be shown once.

Legend:
Assay in all cases: FP assay with Cy5-labelled p62 LIR tracer (protein titration and tracer displacement)
GABARAPL2 = GABARAPL2 (Homo sapiens, UniProt P60520); settings: GABARAPL2
GABARAP = GABARAP (Homo sapiens, UniProt O95166); assay type: binding; settings: for normalized FP signal, p62 LIR tracer displacement: GABARAP; for compound titration GABARAP (displacement curve, FP signal): two replicate columns per compound
GABARAPL1 = GABARAPL1 (Homo sapiens, UniProt Q9H0R8); assay type: binding; settings: for normalized FP signal, p62 LIR tracer displacement: GABARAPL1; for compound titration GABARAPL1 (displacement curve, FP signal): two replicate columns per compound; for FP tracer displacement curve signal (compound titration): duplicate values
LC3C = LC3C (Homo sapiens, UniProt Q9BXW4); assay type: binding; settings: for normalized FP signal, p62 LIR tracer displacement: LC3C; for compound titration LC3C (displacement curve, FP signal): two replicate columns per compound
[1] = log10 concentration [M] -3.82391, listed as 8F20
[2] = log10 concentration [M] -4.1549, listed as 8F20
[3] = log10 concentration [M] -4.60206, listed as 8F20
[4] = log10 concentration [M] -5.30103, listed as 8F20
[5] = log10 concentration [M] -5.69897, listed as 8F20
[6] = log10 concentration [M] -6.22185, listed as 8F20
[7] = log10 concentration [M] -6.69897, listed as 8F20
[8] = log10 concentration [M] -7.30103, listed as 8F20
[9] = log10 concentration [M] -7.79588, listed as 8F20
[10] = log10 concentration [M] -8.08092, listed as 8F20
[11] = log10 concentration [M] -5, listed as 8F20
[12] = log10 concentration [M] -7.79588
[13] = log10 concentration [M] -3.82391
[14] = log10 concentration [M] -4.1549
[15] = log10 concentration [M] -4.60206
[16] = log10 concentration [M] -5.30103
[17] = log10 concentration [M] -5.69897
[18] = log10 concentration [M] -6.22185
[19] = log10 concentration [M] -6.69897
[20] = log10 concentration [M] -7.30103
[21] = log10 concentration [M] -8.08092

Sequence of GABARAP (O95166 1-116): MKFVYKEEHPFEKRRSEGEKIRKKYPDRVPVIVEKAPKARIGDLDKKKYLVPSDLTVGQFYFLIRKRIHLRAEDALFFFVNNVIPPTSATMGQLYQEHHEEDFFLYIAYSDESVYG
Sequence of GABARAPL1 (Q9H0R8 whole entry): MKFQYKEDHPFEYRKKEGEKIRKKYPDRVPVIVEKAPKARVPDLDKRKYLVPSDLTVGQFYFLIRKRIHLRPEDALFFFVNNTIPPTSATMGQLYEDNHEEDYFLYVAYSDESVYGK
Sequence of LC3C (Q9BXW4 1-126): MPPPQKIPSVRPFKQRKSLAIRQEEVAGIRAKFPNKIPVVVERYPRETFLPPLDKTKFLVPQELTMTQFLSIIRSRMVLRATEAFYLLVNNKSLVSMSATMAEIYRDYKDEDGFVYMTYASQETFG
Sequence of GABARAPL2 (P60520 whole entry): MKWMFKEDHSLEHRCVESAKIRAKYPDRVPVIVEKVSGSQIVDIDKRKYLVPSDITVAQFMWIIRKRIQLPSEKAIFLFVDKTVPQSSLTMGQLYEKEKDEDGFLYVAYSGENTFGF

With `Cc1ccc(C(=O)N(CCCN)[C@@H](c2nc3cc(Cl)ccc3c(=O)n2Cc2ccccc2)C(C)C)cc1` [compound 3, (R)-N-(3-aminopropyl)-N-(1-(3-benzyl-7-chloro-4-oxo-3,4-dihydroquinazolin-2-yl)−2-methylpropyl)−4-methylbenzamide] the “normalized FP signal, p62 LIR tracer displacement” value (shortened to “normalized FP signal”) (GABARAPL2; [1]) was 94 and 100, the “normalized FP signal” value (GABARAPL2; [2]) was 98.4 and 97.2 and the “normalized FP signal” value (GABARAPL2; [3]) was 98.4 and 102.4. The “normalized FP signal” value (GABARAPL2; log10 concentration [M] -5) was 103.2, the “normalized FP signal” value (GABARAPL2; [4]) was 100.4 and 101.6 and the “normalized FP signal” value (GABARAPL2; [5]) was 96.8 and 92. For the same compound, the “normalized FP signal” value (GABARAPL2; [6]) was 103.6 and 100.4, the “normalized FP signal” value (GABARAPL2; [7]) was 101.2 and 96 and the “normalized FP signal” value (GABARAPL2; [8]) was 107.2 and 97.6. For the same compound, the “normalized FP signal” value (GABARAPL2; [9]) was 97.2 and 95.6, the “normalized FP signal” value (GABARAPL2; [10]) was 101.2 and 103.6 and the “normalized FP signal” value (GABARAP; [1]) was 89.6552 and 90.5172. For the same compound, the “normalized FP signal” value (GABARAP; [2]) was 93.7931 and 93.9655, the “normalized FP signal” value (GABARAP; [3]) was 101.379 and 97.931 and the “normalized FP signal” value (GABARAP; [11]) was 97.4138 and 100.172. The “normalized FP signal” value (GABARAP; [4]) was 96.2069 and 97.931, the “normalized FP signal” value (GABARAP; [5]) was 90 and 89.6552 and the “normalized FP signal” value (GABARAP; [6]) was 96.2069 and 96.5517. For the same compound, the “normalized FP signal” value (GABARAP; [7]) was 96.5517 and 96.3793, the “normalized FP signal” value (GABARAP; [8]) was 100 and 98.2759 and the “normalized FP signal” value (GABARAP; [12]) was 95.5172. The “normalized FP signal” value (GABARAP; [10]) was 97.069 and 98.1034, the “compound titration GABARAP (displacement curve, FP signal)” value (GABARAP; [13]) was 89.6552 and 90.5172 and the “compound titration GABARAP (displacement curve, FP signal)” value (GABARAP; [14]) was 93.7931 and 93.9655. For the same compound, the “compound titration GABARAP (displacement curve, FP signal)” value (GABARAP; [15]) was 101.379 and 97.931, the “compound titration GABARAP (displacement curve, FP signal)” value (GABARAP; log10 concentration [M] -5) was 97.4138 and 100.172 and the “compound titration GABARAP (displacement curve, FP signal)” value (GABARAP; [16]) was 96.2069 and 97.931. The “compound titration GABARAP (displacement curve, FP signal)” value (GABARAP; [17]) was 90 and 89.6552, the “compound titration GABARAP (displacement curve, FP signal)” value (GABARAP; [18]) was 96.2069 and 96.5517 and the “compound titration GABARAP (displacement curve, FP signal)” value (GABARAP; [19]) was 96.5517 and 96.3793. For the same compound, the “compound titration GABARAP (displacement curve, FP signal)” value (GABARAP; [20]) was 100 and 98.2759, the “compound titration GABARAP (displacement curve, FP signal)” value (GABARAP; [12]) was 95.5172 and the “compound titration GABARAP (displacement curve, FP signal)” value (GABARAP; [21]) was 97.069 and 98.1034. For the same compound, the “normalized FP signal” value (GABARAPL1; [1]) was 96.5714 and 97.4286, the “normalized FP signal” value (GABARAPL1; [2]) was 97.2857 and 99 and the “normalized FP signal” value (GABARAPL1; [15]) was 101. The “normalized FP signal” value (GABARAPL1; [11]) was 101.143 and 102, the “normalized FP signal” value (GABARAPL1; [16]) was 100.143 and the “normalized FP signal” value (GABARAPL1; [5]) was 94.7143 and 94.5714. For the same compound, the “normalized FP signal” value (GABARAPL1; [6]) was 98.2857 and 100.429, the “normalized FP signal” value (GABARAPL1; [7]) was 99.7143 and 102.286 and the “normalized FP signal” value (GABARAPL1; [8]) was 103.571 and 102.286. The “normalized FP signal” value (GABARAPL1; [9]) was 96.8571 and 101.571, the “normalized FP signal” value (GABARAPL1; [10]) was 99.1429 and 98.1429 and the “compound titration GABARAPL1 (displacement curve, FP signal)” value (“compound titration GABARAPL1” below) (GABARAPL1; [13]) was 96.5714 and 97.4286. For the same compound, the “compound titration GABARAPL1” value (GABARAPL1; [14]) was 97.2857 and 99, the “compound titration GABARAPL1” value (GABARAPL1; [15]) was 101 and the “compound titration GABARAPL1” value (GABARAPL1; log10 concentration [M] -5) was 101.143 and 102. For the same compound, the “FP tracer displacement curve signal (compound titration)” value (shortened to “FP tracer displacement curve signal”) (GABARAPL1; [5]) was 94.7143 and 94.5714, the “FP tracer displacement curve signal” value (GABARAPL1; [6]) was 98.2857 and 100.429 and the “FP tracer displacement curve signal” value (GABARAPL1; [7]) was 99.7143 and 102.286. The “FP tracer displacement curve signal” value (GABARAPL1; [8]) was 103.571 and 102.286, the “FP tracer displacement curve signal” value (GABARAPL1; [9]) was 96.8571 and 101.571 and the “FP tracer displacement curve signal” value (GABARAPL1; [10]) was 99.1429 and 98.1429. The “normalized FP signal” value (LC3C; [1]) was 89.8 and 92.8, the “normalized FP signal” value (LC3C; [2]) was 92.6 and 95.4 and the “normalized FP signal” value (LC3C; [3]) was 97.8 and 100.8. The “normalized FP signal” value (LC3C; [11]) was 94.6 and 96.4, the “normalized FP signal” value (LC3C; [4]) was 98.8 and 92.6 and the “normalized FP signal” value (LC3C; [5]) was 85.8 and 92.2. The “normalized FP signal” value (LC3C; [6]) was 93.8 and 95, the “normalized FP signal” value (LC3C; [7]) was 99.2 and 96.4 and the “normalized FP signal” value (LC3C; [8]) was 101 and 100.8. For the same compound, the “normalized FP signal” value (LC3C; [12]) was 94.6, the “normalized FP signal” value (LC3C; [9]) was 93.4 and the “normalized FP signal” value (LC3C; [10]) was 95.2 and 100.4. For the same compound, the “compound titration LC3C (displacement curve, FP signal)” value (“compound titration LC3C” for short) (LC3C; [13]) was 89.8 and 92.8, the “compound titration LC3C” value (LC3C; [14]) was 92.6 and 95.4 and the “compound titration LC3C” value (LC3C; [15]) was 97.8 and 100.8. The “compound titration LC3C” value (LC3C; log10 concentration [M] -5) was 94.6 and 96.4, the “compound titration LC3C” value (LC3C; [16]) was 98.8 and 92.6 and the “compound titration LC3C” value (LC3C; [17]) was 85.8 and 92.2. The “compound titration LC3C” value (LC3C; [18]) was 93.8 and 95, the “compound titration LC3C” value (LC3C; [19]) was 99.2 and 96.4 and the “compound titration LC3C” value (LC3C; [20]) was 101 and 100.8. The “compound titration LC3C” value (LC3C; [12]) was 93.4 and 94.6 and the “compound titration LC3C” value (LC3C; [21]) was 95.2 and 100.4.
